Assay results reported in patent US20240116883A1, “CANNABINOID DERIVATIVES AND THEIR USE THE TREATMENT OF INFLAMMATION AND/OR PAIN AND/OR OBESITY” (Yissum Research Development Company of The Hebrew …, priority 2020, published 2024).

Tests used:
[1] = system: swelling, pain, TNF-alpha; experiment: biological activity assays of FIGS. 1-4 (swelling, pain, TNF-alpha, weight bearing); assay type: in vivo, mice; details: summary of FIGS. 1-4; varied doses, compared to CBD/CBG
Protocol: After an additional 90 minutes, the mice were decapitated, and trunk blood was collected for determination of TNF-α levels. […]
TNF-α determination assay: TNF-α (pg/ml) in cell culture supernatants or in mouse blood plasma was determined by the “sandwich” ELISA technique. ELISA reagents were used according to the manufacturer's protocol (R & D Systems).

[2] = system: TPA induced erythema of mouse ear; details: application of a 100 pg/ml solution; cited from earlier work
[3] = system: phenylbenzoquinone writhing; details: mice; versus aspirin; cited from earlier work
cannabinoid receptor CB2 = cannabinoid receptor CB2 (Homo sapiens, UniProt P34972); details: cited from earlier work
Chain of cannabinoid receptor CB2 (P34972 whole entry): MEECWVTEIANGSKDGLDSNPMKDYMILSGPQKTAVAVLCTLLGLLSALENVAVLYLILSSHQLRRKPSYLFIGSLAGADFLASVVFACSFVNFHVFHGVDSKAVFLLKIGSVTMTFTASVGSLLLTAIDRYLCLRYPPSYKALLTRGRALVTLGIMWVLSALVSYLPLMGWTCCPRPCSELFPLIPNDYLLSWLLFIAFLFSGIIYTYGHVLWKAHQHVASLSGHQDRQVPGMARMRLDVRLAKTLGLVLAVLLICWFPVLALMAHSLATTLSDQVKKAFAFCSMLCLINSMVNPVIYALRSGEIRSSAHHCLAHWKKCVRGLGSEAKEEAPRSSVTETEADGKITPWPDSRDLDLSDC

Row | Compound | anti-inflammatory activity [1] | inhibition of the inflammation response [2] | analgesic potency compared to aspirin [3] | binding to CB2 (cannabinoid receptor CB2)
1 | C=C(C)[C@@H]1CCC(C)=C[C@H]1c1c(O)cc(CCCCC)c(C)c1O [HUM-216, (1′R,2′R)-3,5′-dimethyl-4-pentyl-2′-(prop-1-en-2-yl)-1′,2′,3′,4′-tetrahydro-[1,1′-biphenyl]-2,6-diol] | notable anti-inflammatory activity |  |  | 
2 | CCCCCc1cc(O)c(C/C=C(\C)CCC=C(C)C)c(O)c1C [HUM-218, (E)-2-(3,7-dimethylocta-2,6-dien-1-yl)-4-methyl-5-pentylbenzene-1,3-diol] | notable anti-inflammatory activity |  |  | 
3 | C=C(C)[C@@H]1CCC(C)=C[C@H]1c1c(O)cc(CCCCC)cc1O [CBD, Cannabidiol] |  | 92% | much more potent than aspirin | does not bind
4 | CCCCCCC(C)(C)c1cc(O)c(C/C=C(\C)CCC=C(C)C)c(OC)c1 [HUM-223, (E)-2-(3,7-dimethylocta-2,6-dien-1-yl)-3-methoxy-5-(2-methyloctan-2-yl)phenol] | notable anti-inflammatory activity |  |  | 
5 | CCCCCc1cc(O)c([C@@H]2C=C(C)CC[C@H]2C(C)C)c(O)c1C [HUM-217, (1′S,2′S)-2′-isopropyl-3,5′-dimethyl-4-pentyl-1′,2′,3′,4′-tetrahydro-[1,1′-biphenyl]-2,6-diol] | notable anti-inflammatory activity |  |  | 
